Results taken from ChEMBL document CHEMBL1629644, “Theileria apicoplast as a target for chemotherapy” (Antimicrob Agents Chemother, 2009).
pIC50: −log10 of the molar value.

Assays:
[1] = Induction of apoptosis in bovine BL3 cells assessed as early apoptotic cells after 24 hrs by annexin V/propidium iodide staining-based FACS analysis; type: functional, Bos taurus; parameters: concentration or dose not given beside the values
[2] = Antiproliferative activity against Theileria parva-induced proliferation of bovine B lymphocyte assessed as inhibition of [3H]thymidine uptake after 48 hrs; type: functional; conditions: Bos taurus, B-cell
[3] = Induction of apoptosis in bovine BL3 cells assessed as viable cells after 24 hrs by annexin V/propidium iodide staining-based FACS analysis; type: functional, Bos taurus; parameters: concentration or dose not given beside the values
[4] = Induction of apoptosis in bovine BL3 cells assessed as late apoptotic cells after 24 hrs by annexin V/propidium iodide staining-based FACS analysis; type: functional, Bos taurus; parameters: concentration or dose not given beside the values
[5] = Induction of apoptosis in bovine BL3 cells assessed as necrotic after 24 hrs by annexin V/propidium iodide staining-based FACS analysis; type: functional, Bos taurus; parameters: concentration or dose not given beside the values
[6] = Antiproliferative activity against Theileria parva-induced proliferation of bovine BL3 cells assessed as inhibition of [3H]thymidine uptake after 32 hrs; type: functional, Bos taurus

Row | Compound | Activity [1] [%] | pIC50 [2] | Activity [3] [%] | Activity [4] [%] | Activity [5] [%] | inhibition (INH) [6] [%]
1 | O=C(O)c1cn(C2CC2)c2cc(N3CCNCC3)c(F)cc2c1=O [CIPROFLOXACIN] | 1.03 | 3.91 | 98.63 | 0.25 | 0.03 | 
2 | CCC[C@@H]1C[C@@H](C(=O)N[C@@H]([C@H]2O[C@H](SC)[C@H](O)[C@@H](O)[C@H]2O)[C@H](C)Cl)N(C)C1 [CLINDAMYCIN] | 7.36 | < 3.40 | 92.64 | 0 | 0 | 28
3 | CC(Oc1ccc(Oc2nc3ccc(Cl)cc3o2)cc1)C(=O)O (stereo not drawn) [FENOXAPROP] | 15.98 | 3.58 | 83.78 | 0.06 | 0.18 | >75
4 | CO[C@H]1/C=C/O[C@@]2(C)Oc3c(C)c(O)c4c(O)c(c(/C=N/N5CCN(C)CC5)c(O)c4c3C2=O)NC(=O)/C(C)=C\C=C\[C@H](C)[C@H](O)[C@@H](C)[C@@H](O)[C@@H](C)[C@H](OC(C)=O)[C@@H]1C [RIFAMPIN] | 2.43 | 4.02 | 97.57 | 0 | 0 | >75
5 | CN[C@@H]1C[C@H]2O[C@@](C)([C@@H]1OC)n1c3ccccc3c3c4c(c5c6ccccc6n2c5c31)C(=O)NC4 [STAUROSPORINE] | 23.83 |  | 61.57 | 14.54 | 0.08 | 
6 | Oc1cc(Cl)ccc1Oc1ccc(Cl)cc1Cl [TRICLOSAN] | 44.02 | 4.70 | 45.87 | 9.98 | 0.13 | >75
